Assay results as given in patent publication US6444617B1, “Fused-heterocycle dicarboxylic acid diamide derivatives or salts thereof, herbicide and usage thereof” (Nihon Nohyaku Co., Ltd., priority 1998, dated 2002).

Columns and labels:
Type in all cases: in vivo
[1] = system: bird's eye speedwell (Veronica persica Poir.), Vp; assay: Test Example 4: herbicidal effect on upland weeds after emergence; details: dosage 5 kg/ha; sprayed after emergence; judged 14 days after treatment
In short: (§1)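 Soil vats; sown weeds + soybean/wheat; spray at leaf-stage, prescribed compound concentration; weed-kill rate judged day 14.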

[2] = system: cleavers (Galium aparine L.), Ga; assay: as above; details: dosage 5 kg/ha; sprayed after emergence; judged 14 days after treatment
In short: as §1

[3] = system: forxtail grass (Alopecurus aequalis var. amurensis Ohwi), Am; assay: as above; details: dosage 5 kg/ha; sprayed after emergence; judged 14 days after treatment
In short: as §1

[4] = system: velvetleaf (Abutilon theophtasti L.), At; assay: as above; details: dosage 5 kg/ha; sprayed after emergence; judged 14 days after treatment
In short: as §1

[5] = system: barnyard grass (Echinochloa crus-galli Beauv.), Ec; assay: as above; details: dosage 5 kg/ha; sprayed after emergence; judged 14 days after treatment
In short: as §1

[6] = system: cocklebur (Xanthium strumarium L.), Xs; assay: as above; details: dosage 5 kg/ha; sprayed after emergence; judged 14 days after treatment
In short: as §1

wheat (Wh) = assay: Test Example 3: phytotoxicity to upland crop plants, treatment before emergence; details: dosage 5 kg/ha
In short: (§2)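 A sprayed liquid agent with a prescribed concentration of active compound was applied pre-emergence. Visual phytotoxicity on soybean and wheat was rated by criterion two weeks (14 days) after application, concurrently with the herbicidal assessment.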

soybean plant (So) = assay: as above; details: dosage 5 kg/ha
In short: as §2

[7] = system: barnyard grass (Echinochloa crus-galli Beauv.); assay: Test Example 2: herbicidal effect on paddy field weeds after emergence; details: Dosage 5 kg/ha; one-leaved stage; 21 days after treatment
In short: (§3)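 Weeds were sown in 1/10000 are pots of soil flooded to paddy conditions and grown to the one-leaf stage, then the soil was treated with a solution of compound at a predetermined dosage.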

[8] = system: monochoria (Monochoria vaginalis Presl); assay: as above; details: Dosage 5 kg/ha; one-leaved stage; 21 days after treatment
In short: as §3

[9] = system: bulrush (Scirpus juncoides Roxb.); assay: as above; details: Dosage 5 kg/ha; one-leaved stage; 21 days after treatment
In short: as §3

[10] = system: bird's eye speedwell (Veronica persica Poir.), Vp; assay: Test Example 3: herbicidal effect on upland weeds before emergence; details: dosage 5 kg/ha
In short: (§4)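 Steps: sow upland weed seeds; spray liquid formulation of active ingredient at prescribed concentration prior to emergence; after 14 days, calculate weed-killing rate; judge herbicidal effect.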

[11] = system: cleavers (Galium aparine L.), Ga; assay: as above; details: dosage 5 kg/ha
In short: as §4

[12] = system: forxtail grass (Alopecurus aequalis var. amurensis Ohwi), Am; assay: as above; details: foxtail grass, dosage 5 kg/ha
In short: as §4

[13] = system: velvetleaf (Abutilon theophtasti L.), At; assay: as above; details: dosage 5 kg/ha
In short: as §4

[14] = system: barnyard grass (Echinochloa crus-galli Beauv.), Ec; assay: as above; details: dosage 5 kg/ha
In short: as §4

[15] = system: cocklebur (Xanthium strumarium L.), Xs; assay: as above; details: dosage 5 kg/ha
In short: as §4

soybean plant = assay: Test Example 4: phytotoxicity to upland crop plants, treatment after emergence; details: dosage 5 kg/ha, sprayed after emergence, judged 14 days after treatment
In short: (§5)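 Scores of weed-killing rate, with crop phytotoxicity, come from inspection 14 days after plants in soil vats, grown to specified leaf stages, are sprayed with a formulation holding the compound at a prescribed concentration.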

wheat = assay: as above; details: dosage 5 kg/ha, sprayed after emergence, judged 14 days after treatment
In short: as §5

[16] = system: barnyard grass (Echinochloa crus-galli Beauv.); assay: Test Example 1: herbicidal effect on paddy field weeds before emergence; details: Dosage 5 kg/ha
In short: (§6)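 Seeds of both weeds, still ungerminated, in soil pots held under paddy conditions received a set dose of test solution as soil treatment. After twenty-one days, control relative to untreated pots was calculated and rated on a scoring scale.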

[17] = system: bulrush (Scirpus juncoides Roxb.); assay: as above; details: Dosage 5 kg/ha
In short: as §6

CCCNC(=O)c1nc2ccc(O)cc2cc1C(=O)Nc1c(CC)ccc(Cl)c1CC [compound 276]
Herbicidal effect Vp [1]: 5 (Weed-killing rate is 100%.) | Herbicidal effect Ga [2]: 4 (Weed-killing rate is 90-99%.) | Herbicidal effect Am [3]: 4 (Weed-killing rate is 90-99%.) | Herbicidal effect At [4]: 5 (Weed-killing rate is 100%.) | Herbicidal effect Ec [5]: 5 (Weed-killing rate is 100%.) | Herbicidal effect Xs [6]: 4 (Weed-killing rate is 90-99%.) | Phytotoxicity Wh (wheat (Wh)): 2 (Crop-killing rate is 40-69%.) | Phytotoxicity So (soybean plant (So)): 0 (Crop-killing rate is 0-20% (No Phytotoxicity).) | Post-emergence treatment Barnyard grass (herbicidal effect) [7]: 3 (Weed-killing rate is 70-89%.) | Post-emergence treatment Monochoria (herbicidal effect) [8]: 5 (Weed-killing rate is 100%.) | Post-emergence treatment Bulrush (herbicidal effect) [9]: 4 (Weed-killing rate is 90-99%.) | Herbicidal effect Vp [10]: 5 (Weed-killing rate is 100%.) | Herbicidal effect Ga [11]: 4 (Weed-killing rate is 90-99%.) | Herbicidal effect Am [12]: 4 (Weed-killing rate is 90-99%.) | Herbicidal effect At [13]: 5 (Weed-killing rate is 100%.) | Herbicidal effect Ec [14]: 5 (Weed-killing rate is 100%.) | Herbicidal effect Xs [15]: 4 (Weed-killing rate is 90-99%.) | Phytotoxicity So (soybean plant): 2 (Crop-killing rate is 40-69%.) | Phytotoxicity Wh (wheat): 3 (Crop-killing rate is 70-89%.) | Pre-emergence treatment Barnyard grass (herbicidal effect) [16]: 5 (Weed-killing rate is 100%.) | Pre-emergence treatment Bulrush (herbicidal effect) [17]: 5 (Weed-killing rate is 100%.)

CCCNC(=O)c1cc2c(nc1C(=O)Nc1c(CC)ccc(Cl)c1CC)S(=O)(=O)CC2 [Compound No. 1040, 6-(3-Chloro-2,6-diethylphenyl)-aminocarbonyl-2,3-dihydro-1,1-dioxo-thieno[2,3-b]pyridine-5-carboxylic Acid n-Propylamide]
Herbicidal effect Vp [1]: 5 (Weed-killing rate is 100%.) | Herbicidal effect Ga [2]: 5 (Weed-killing rate is 100%.) | Herbicidal effect Am [3]: 5 (Weed-killing rate is 100%.) | Herbicidal effect At [4]: 5 (Weed-killing rate is 100%.) | Herbicidal effect Ec [5]: 5 (Weed-killing rate is 100%.) | Herbicidal effect Xs [6]: 5 (Weed-killing rate is 100%.) | Phytotoxicity Wh (wheat (Wh)): 5 (Crop-killing rate is 100%.) | Phytotoxicity So (soybean plant (So)): 4 (Crop-killing rate is 90-99%.) | Post-emergence treatment Barnyard grass (herbicidal effect) [7]: 5 (Weed-killing rate is 100%.) | Post-emergence treatment Monochoria (herbicidal effect) [8]: 5 (Weed-killing rate is 100%.) | Post-emergence treatment Bulrush (herbicidal effect) [9]: 5 (Weed-killing rate is 100%.) | Herbicidal effect Vp [10]: 5 (Weed-killing rate is 100%.) | Herbicidal effect Ga [11]: 5 (Weed-killing rate is 100%.) | Herbicidal effect Am [12]: 5 (Weed-killing rate is 100%.) | Herbicidal effect At [13]: 5 (Weed-killing rate is 100%.) | Herbicidal effect Ec [14]: 5 (Weed-killing rate is 100%.) | Herbicidal effect Xs [15]: 5 (Weed-killing rate is 100%.) | Phytotoxicity So (soybean plant): 4 (Crop-killing rate is 90-99%.) | Phytotoxicity Wh (wheat): 5 (Crop-killing rate is 100%.) | Pre-emergence treatment Barnyard grass (herbicidal effect) [16]: 5 (Weed-killing rate is 100%.) | Pre-emergence treatment Bulrush (herbicidal effect) [17]: 5 (Weed-killing rate is 100%.)

CCNC(=O)c1nc2sccc2cc1C(=O)Nc1c(CC)ccc(Cl)c1CC [compound 798]
Herbicidal effect Vp [1]: 5 (Weed-killing rate is 100%.) | Herbicidal effect Ga [2]: 5 (Weed-killing rate is 100%.) | Herbicidal effect Am [3]: 5 (Weed-killing rate is 100%.) | Herbicidal effect At [4]: 5 (Weed-killing rate is 100%.) | Herbicidal effect Ec [5]: 5 (Weed-killing rate is 100%.) | Herbicidal effect Xs [6]: 5 (Weed-killing rate is 100%.) | Phytotoxicity Wh (wheat (Wh)): 5 (Crop-killing rate is 100%.) | Phytotoxicity So (soybean plant (So)): 4 (Crop-killing rate is 90-99%.) | Post-emergence treatment Barnyard grass (herbicidal effect) [7]: 5 (Weed-killing rate is 100%.) | Post-emergence treatment Monochoria (herbicidal effect) [8]: 5 (Weed-killing rate is 100%.) | Post-emergence treatment Bulrush (herbicidal effect) [9]: 5 (Weed-killing rate is 100%.) | Herbicidal effect Vp [10]: 5 (Weed-killing rate is 100%.) | Herbicidal effect Ga [11]: 5 (Weed-killing rate is 100%.) | Herbicidal effect Am [12]: 5 (Weed-killing rate is 100%.) | Herbicidal effect At [13]: 5 (Weed-killing rate is 100%.) | Herbicidal effect Ec [14]: 5 (Weed-killing rate is 100%.) | Herbicidal effect Xs [15]: 5 (Weed-killing rate is 100%.) | Phytotoxicity So (soybean plant): 4 (Crop-killing rate is 90-99%.) | Phytotoxicity Wh (wheat): 5 (Crop-killing rate is 100%.) | Pre-emergence treatment Barnyard grass (herbicidal effect) [16]: 5 (Weed-killing rate is 100%.) | Pre-emergence treatment Bulrush (herbicidal effect) [17]: 5 (Weed-killing rate is 100%.)

CCCNC(=O)c1nc2c(cc1C(=O)Nc1cccc(Cl)c1C)OCCC2 [compound 498]
Herbicidal effect Vp [1]: 5 (Weed-killing rate is 100%.) | Herbicidal effect Ga [2]: 4 (Weed-killing rate is 90-99%.) | Herbicidal effect Am [3]: 5 (Weed-killing rate is 100%.) | Herbicidal effect At [4]: 5 (Weed-killing rate is 100%.) | Herbicidal effect Ec [5]: 5 (Weed-killing rate is 100%.) | Herbicidal effect Xs [6]: 4 (Weed-killing rate is 90-99%.) | Phytotoxicity Wh (wheat (Wh)): 4 (Crop-killing rate is 90-99%.) | Phytotoxicity So (soybean plant (So)): 4 (Crop-killing rate is 90-99%.) | Post-emergence treatment Barnyard grass (herbicidal effect) [7]: 5 (Weed-killing rate is 100%.) | Post-emergence treatment Monochoria (herbicidal effect) [8]: 5 (Weed-killing rate is 100%.) | Post-emergence treatment Bulrush (herbicidal effect) [9]: 5 (Weed-killing rate is 100%.) | Herbicidal effect Vp [10]: 5 (Weed-killing rate is 100%.) | Herbicidal effect Ga [11]: 4 (Weed-killing rate is 90-99%.) | Herbicidal effect Am [12]: 5 (Weed-killing rate is 100%.) | Herbicidal effect At [13]: 5 (Weed-killing rate is 100%.) | Herbicidal effect Ec [14]: 5 (Weed-killing rate is 100%.) | Herbicidal effect Xs [15]: 4 (Weed-killing rate is 90-99%.) | Phytotoxicity So (soybean plant): 4 (Crop-killing rate is 90-99%.) | Phytotoxicity Wh (wheat): 4 (Crop-killing rate is 90-99%.) | Pre-emergence treatment Barnyard grass (herbicidal effect) [16]: 5 (Weed-killing rate is 100%.) | Pre-emergence treatment Bulrush (herbicidal effect) [17]: 5 (Weed-killing rate is 100%.)

CCNC(=O)c1nc2ccsc2cc1C(=O)Nc1c(CC)ccc(Cl)c1CC [compound 870]
Herbicidal effect Vp [1]: 5 (Weed-killing rate is 100%.) | Herbicidal effect Ga [2]: 5 (Weed-killing rate is 100%.) | Herbicidal effect Am [3]: 5 (Weed-killing rate is 100%.) | Herbicidal effect At [4]: 5 (Weed-killing rate is 100%.) | Herbicidal effect Ec [5]: 5 (Weed-killing rate is 100%.) | Herbicidal effect Xs [6]: 5 (Weed-killing rate is 100%.) | Phytotoxicity Wh (wheat (Wh)): 4 (Crop-killing rate is 90-99%.) | Phytotoxicity So (soybean plant (So)): 3 (Crop-killing rate is 70-89%.) | Post-emergence treatment Barnyard grass (herbicidal effect) [7]: 5 (Weed-killing rate is 100%.) | Post-emergence treatment Monochoria (herbicidal effect) [8]: 5 (Weed-killing rate is 100%.) | Post-emergence treatment Bulrush (herbicidal effect) [9]: 5 (Weed-killing rate is 100%.) | Herbicidal effect Vp [10]: 5 (Weed-killing rate is 100%.) | Herbicidal effect Ga [11]: 5 (Weed-killing rate is 100%.) | Herbicidal effect Am [12]: 5 (Weed-killing rate is 100%.) | Herbicidal effect At [13]: 5 (Weed-killing rate is 100%.) | Herbicidal effect Ec [14]: 5 (Weed-killing rate is 100%.) | Herbicidal effect Xs [15]: 5 (Weed-killing rate is 100%.) | Phytotoxicity So (soybean plant): 3 (Crop-killing rate is 70-89%.) | Phytotoxicity Wh (wheat): 4 (Crop-killing rate is 90-99%.) | Pre-emergence treatment Barnyard grass (herbicidal effect) [16]: 5 (Weed-killing rate is 100%.) | Pre-emergence treatment Bulrush (herbicidal effect) [17]: 5 (Weed-killing rate is 100%.)
